Test results: ChEMBL document CHEMBL1141305, “Daphnipaxianines A-D, alkaloids from Daphniphyllum paxianum” (J Nat Prod, 2007)
Activity calls are given as the source filed them.

Columns and labels:
Format in all cases: functional, cell-based
[1] = test system: HCT-116; assay: Cytotoxicity against human Bax deficient HCT116 cells
[2] = test system: HCT-116; assay: Cytotoxicity against human HCT116 cells
[3] = test system: MEF; assay: Cytotoxicity against mouse Bax and Bak deficient MEF cells

Measured: Activity

C[C@@H]1CN2C[C@H]3CCC4=C5[C@](O)(CC4)CC[C@@]54C(=O)[C@@H]1C[C@@H]2[C@@]34C
inactive: all assays above

C[C@@H]1CN2C[C@H]3CC[C@]4(O)CC(=O)C5=C4[C@@]4(CC5)C(=O)[C@@H]1C[C@@H]2[C@@]34C
inactive: all assays above

COC(=O)[C@@H]1C[C@]23CN4CC(CCC5(CCC1C52)C4)[C@@]31CC[C@](OC)(C(C)C)OC1 (some centres not stated)
inactive: all assays above

C[C@@H]1CN2C[C@H]3CC[C@@]4(O)CC(=O)C5=C4[C@@]4(CC5)C(=O)[C@@H]1C[C@@H]2[C@@]34C
inactive: all assays above
